Data set [1] deals with 8505C cells. The experiment in a line: CellTiter-Glo dose-response in 8505C cells after siRNA knockdown. The data set is classed as cell-based, human. Particulars: for IC50: Homo sapiens, 72 h. For orientation: In ATP-based viability assays light output follows the ATP content of the culture.
For data set [2] the following is noted: for Histological evidence of toxicity: GI, affected/total (fraction) / Histological evidence of toxicity: Heart, affected/total (fraction) / Histological evidence of toxicity: Liver, Glycogen, affected/total (fraction) / Histological evidence of toxicity: Liver, Vaculation, affected/total (fraction) / Histological evidence of toxicity: Pancreas, affected/total (fraction): C57BL6/J; for Histological evidence of toxicity: GI, affected/total (fraction) / Histological evidence of toxicity: Heart, affected/total (fraction) / Histological evidence of toxicity: Liver, Glycogen, affected/total (fraction) / Histological evidence of toxicity: Liver, Vaculation, affected/total (fraction) / Histological evidence of toxicity: Pancreas, affected/total (fraction) / Lethality or lethargy: 7 days; for Lethality or lethargy: super-therapeutic doses.

Another data set concerns THJ-21T. The experiment in a line: 72-hr survival dose-response of ATC cell line THJ-21T. The following applies: Homo sapiens. Type of data set: cell-based.
For data set [3], the system named is 8505C cells. The experiment in a line: Mouse orthotopic xenograft model of ATC, survival. Particulars: for Median Survival: Nu/Nu mice, thyroid orthotopic 8505C, control 22 days; for Hazard ratio: relative Control (untreated) mice, orthotopic 8505C.
The subject of another data set is THJ-16T. The experiment in a line: 72-hr survival dose-response of ATC cell line THJ-16T.
A further data set deals with NFκB-p65 (RelA). The experiment in a line: Western blot of NFκB-p65/RelA expression. Particulars: 8505C and THJ-16T cells, S 10 µM, Q 20 µM. Type of data set: cell-based, human. In general terms: In western blotting, separated proteins are transferred to a membrane and probed.
The next data set relates to 8505C. The data set is described as follows: Flow cytometric sub-G1 programmed cell death. The data set is classed as cell-based, human. Particulars: short-term treatment, S10, Q20, S10Q20. On the technique in general: In flow cytometry, cells or beads pass a laser one at a time.
A further data set concerns THJ-29T. The experiment in a line: 72-hr survival dose-response of ATC cell line THJ-29T. The following applies: Homo sapiens. The data set is classed as cell-based.

Each structure is given as a SMILES string.

What is called IC50 is the point on the concentration scale where inhibition reaches its midpoint. A higher IC50 goes with weaker potency. Regarding `CCN(CC)CCCC(C)Nc1c2ccc(Cl)cc2nc2ccc(OC)cc12` (centres unmarked) [Quinacrine], in the data set with 8505C cells [1], the “Impact of p65/RelA siRNA on survival dose-response relationship” value is on record as “did not have any significant impact”. Further, in the data set with 8505C cells [1] (Mcl-1 siRNA), the “Effect of Mcl-1 knockdown on IC50” value is “did not affect”. Further, in data set [2] (mouse, in vivo), the “Histological evidence of toxicity: GI, affected/total (fraction)” value is given as 0/4 (0); the “Histological evidence of toxicity: Heart, affected/total (fraction)” value is given as 1/5 (0.20); the “Histological evidence of toxicity: Liver, Glycogen, affected/total (fraction)” value was 3/4 (0.75); the “Histological evidence of toxicity: Liver, Vaculation, affected/total (fraction)” value is 3/4 (0.75). Also, in data set [2] (mouse, in vivo), the “Histological evidence of toxicity: Pancreas, affected/total (fraction)” value is listed as 0/4 (0). Also, the IC50 in the data set on THJ-21T came out at 15.4 µM. For the same molecule, the “Median Survival” value with 8505C cells [3] is on record as 32 days. In the data set with THJ-16T (Homo sapiens, 72 h), this molecule came in with a 50% inhibitory concentration (IC50) of 18.4 µM. Further, in the data set on NFκB-p65 (RelA), the “Expression of NFκB-p65 (RelA)” value is “inhibited”. In the data set with 8505C, the “sub-G1 DNA” value is listed as “Increased”. Also, 12.7 µM corresponded to half-maximal inhibition in the data set with THJ-29T (IC50).
In the case of `CNC(=O)c1cc(Oc2ccc(NC(=O)Nc3ccc(Cl)c(C(F)(F)F)c3)cc2)ccn1` [Sorafenib], in the data set with 8505C cells [1], the “Increased sensitization by p65/RelA siRNA compared to Scr siRNA” value was “approximately 2 fold”. Further, the IC50 in the data set with 8505C cells [1] (scrambled (Scr) siRNA) was 10.5 µM. In addition, in the data set with 8505C cells [1] (siRNA targeting p65/RelA), the concentration for half-maximal inhibition (IC50) was found to be 5.15 µM. In data set [2] (mouse, in vivo), the “Histological evidence of toxicity: GI, affected/total (fraction)” value is 0/5 (0); the “Histological evidence of toxicity: Heart, affected/total (fraction)” value is reported as 0/5 (0); the “Histological evidence of toxicity: Liver, Glycogen, affected/total (fraction)” value is listed as 4/5 (0.80); the “Histological evidence of toxicity: Liver, Vaculation, affected/total (fraction)” value is given as 4/5 (0.80). For the same molecule, the “Histological evidence of toxicity: Pancreas, affected/total (fraction)” value in data set [2] (mouse, in vivo) is 5/5 (1.00). For the same molecule, the Lethality or lethargy entry in data set [2] is recorded as “No lethality or lethargy”. Half-maximal inhibition in the data set on THJ-21T (IC50) was put at 12.4 µM. For the same molecule, in the data set with 8505C cells [3], the “Median Survival” value is reported as 26 days and the Hazard ratio is 0.846. For the same molecule, the IC50 with THJ-16T (THJ-16T, 72-hr survival) was 31 µM. Also, the “sub-G1 DNA” value in the data set on 8505C is recorded as “Increased”. In the data set with THJ-29T, this molecule showed an IC50 of 4.5 µM.
On to `COc1cccc2c1C(=O)c1c(O)c3c(c(O)c1C2=O)C[C@@](O)(C(=O)CO)C[C@@H]3O[C@H]1C[C@H](N)[C@H](O)[C@H](C)O1` [Doxorubicin], for which, in data set [2] (mouse, in vivo), the “Histological evidence of toxicity: GI, affected/total (fraction)” value is recorded as 4/5 (0.80); the “Histological evidence of toxicity: Heart, affected/total (fraction)” value was 0/5 (0); the “Histological evidence of toxicity: Liver, Glycogen, affected/total (fraction)” value is 3/5 (0.60); the “Histological evidence of toxicity: Liver, Vaculation, affected/total (fraction)” value is 4/5 (0.80). Further, in data set [2] (mouse, in vivo), the “Histological evidence of toxicity: Pancreas, affected/total (fraction)” value is on record as 4/5 (0.80); the “Level of platelets in blood” value was “increased level”; the “Number of RBC's and hemoglobin (Hgb)” value is reported as “reduction”. Further, the Lethality or lethargy entry in data set [2] was “No lethality or lethargy”. In addition, in the data set on 8505C cells [3], the “Median Survival” value is recorded as 31 days and the Hazard ratio is recorded as 0.709.

The values above are taken from PMC7524204 (Clinical cancer research : an official journal of the …, 2016).
